Values joined by “and” are separate entries in the source; they are usually repeats but may differ in a detail not shown here. Equal entries are not always repeated. Inconclusive results and toxic doses are left out. Rule for the calls: active = survival T/C of 150% or more; inactive = T/C below 125% in these data.
System: P388 leukemia ip, CD2F1 mice, survival T/C
Test: NCI In Vivo Anticancer Drug Screen. Data for tumor model P388 Leukemia (intraperitoneal) in CD2F1 (CDF1) mice
Settings: endpoint: median survival time, higher = longer survival
Method in brief: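 Mice carrying the transplanted tumor received test compound or vehicle. Survival was recorded in each group, and the value is the treated-group measurement divided by that of the vehicle-treated control group.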

[1] = dose: 100.0 mg/kg/injection, schedule: Q01DX001 (ip), vehicle: saline
[2] = dose: 50.0 mg/kg/injection, schedule: Q01DX009 (ip), vehicle: saline with Tween-80
[3] = dose: 100.0 mg/kg/injection, schedule: Q01DX009 (ip), vehicle: saline with Tween-80
[4] = dose: 200.0 mg/kg/injection, schedule: Q01DX009 (ip), vehicle: saline with Tween-80

Measured: T/C

CNC(=O)ON(C(C)=O)C(=O)NC
inactive: dose: 3.13 mg/kg/injection, schedule: Q03HX015 (ip), vehicle: water 101 % of control and 118 % of control | dose: 6.25 mg/kg/injection, schedule: Q01DX001 (iv), vehicle: saline 95 % of control | dose: 6.25 mg/kg/injection, schedule: Q01DX005 (iv), vehicle: saline 100 % of control | dose: 6.25 mg/kg/injection, schedule: Q01DX009 (ip), vehicle: saline 118 % of control | dose: 6.25 mg/kg/injection, schedule: Q03HX015 (ip), vehicle: water 121 % of control and 98 % of control | dose: 10.0 mg/kg/injection, schedule: Q01DX009 (ip), vehicle: saline 114 % of control and 119 % of control and 120 % of control | dose: 12.5 mg/kg/injection, schedule: Q01DX001 (iv), vehicle: saline 98 % of control | dose: 12.5 mg/kg/injection, schedule: Q01DX005 (ip), vehicle: saline 116 % of control | dose: 12.5 mg/kg/injection, schedule: Q01DX005 (iv), vehicle: saline 102 % of control | dose: 12.5 mg/kg/injection, schedule: Q01DX005 (oral), vehicle: saline 101 % of control | dose: 12.5 mg/kg/injection, schedule: Q01DX009 (ip), vehicle: water 103 % of control and 120 % of control | dose: 12.5 mg/kg/injection, schedule: Q01DX009 (oral), vehicle: saline 103 % of control | dose: 12.5 mg/kg/injection, schedule: Q03HX015 (ip), vehicle: saline 115 % of control | dose: 12.5 mg/kg/injection, schedule: Q03HX015 (ip), vehicle: water 99 % of control and 116 % of control | dose: 20.0 mg/kg/injection, schedule: Q01DX009 (ip), vehicle: saline 121 % of control | dose: 25.0 mg/kg/injection, schedule: Q01DX001 (ip), vehicle: saline 106 % of control | dose: 25.0 mg/kg/injection, schedule: Q01DX001 (iv), vehicle: saline 100 % of control | dose: 25.0 mg/kg/injection, schedule: Q01DX001 (oral), vehicle: saline 98 % of control | dose: 25.0 mg/kg/injection, schedule: Q01DX005 (ip), vehicle: saline 116 % of control | dose: 25.0 mg/kg/injection, schedule: Q01DX005 (iv), vehicle: saline 104 % of control | dose: 25.0 mg/kg/injection, schedule: Q01DX005 (oral), vehicle: saline 104 % of control | dose: 25.0 mg/kg/injection, schedule: Q01DX009 (ip), vehicle: water 106 % of control | dose: 25.0 mg/kg/injection, schedule: Q01DX009 (oral), vehicle: saline 120 % of control | dose: 25.0 mg/kg/injection, schedule: Q03HX015 (ip), vehicle: water 107 % of control | dose: 40.0 mg/kg/injection, schedule: Q01DX009 (ip), vehicle: saline 124 % of control | dose: 50.0 mg/kg/injection, schedule: Q01DX001 (ip), vehicle: saline 111 % of control | dose: 50.0 mg/kg/injection, schedule: Q01DX001 (iv), vehicle: saline 101 % of control and 102 % of control | dose: 50.0 mg/kg/injection, schedule: Q01DX001 (oral), vehicle: saline 97 % of control | dose: 50.0 mg/kg/injection, schedule: Q01DX005 (ip), vehicle: saline 114 % of control | dose: 50.0 mg/kg/injection, schedule: Q01DX005 (iv), vehicle: saline 106 % of control and 108 % of control | dose: 50.0 mg/kg/injection, schedule: Q01DX005 (oral), vehicle: saline 110 % of control | dose: 50.0 mg/kg/injection, schedule: Q01DX009 (ip), vehicle: water 107 % of control | dose: 50.0 mg/kg/injection, schedule: Q01DX009 (oral), vehicle: saline 115 % of control | dose: 50.0 mg/kg/injection, schedule: Q03HX015 (ip), vehicle: water 112 % of control | dose: 80.0 mg/kg/injection, schedule: Q01DX009 (ip), vehicle: saline 121 % of control | [1] 105 % of control | dose: 100.0 mg/kg/injection, schedule: Q01DX001 (iv), vehicle: saline 99 % of control and 101 % of control | dose: 100.0 mg/kg/injection, schedule: Q01DX001 (oral), vehicle: saline 103 % of control | dose: 100.0 mg/kg/injection, schedule: Q01DX005 (iv), vehicle: saline 114 % of control and 115 % of control | dose: 100.0 mg/kg/injection, schedule: Q01DX005 (oral), vehicle: saline 120 % of control | dose: 100.0 mg/kg/injection, schedule: Q01DX009 (ip), vehicle: water 121 % of control | dose: 200.0 mg/kg/injection, schedule: Q01DX001 (iv), vehicle: saline 107 % of control | dose: 200.0 mg/kg/injection, schedule: Q01DX001 (oral), vehicle: saline 103 % of control | dose: 200.0 mg/kg/injection, schedule: Q01DX005 (oral), vehicle: saline 116 % of control | dose: 200.0 mg/kg/injection, schedule: Q01DX009 (ip), vehicle: water 123 % of control | dose: 400.0 mg/kg/injection, schedule: Q01DX001 (oral), vehicle: saline 116 % of control

CCN(CC)c1ccc(C(=N)c2ccc(N(CC)CC)cc2)cc1
inactive: dose: 12.5 mg/kg/injection, schedule: Q01DX005 (ip), vehicle: Klucel (hydroxypropylcellulose) (HPC) 101 % of control | dose: 25.0 mg/kg/injection, schedule: Q01DX005 (ip), vehicle: Klucel (hydroxypropylcellulose) (HPC) 99 % of control | dose: 50.0 mg/kg/injection, schedule: Q01DX005 (ip), vehicle: Klucel (hydroxypropylcellulose) (HPC) 89 % of control and 90 % of control

CSC(=S)N/N=C/c1nccc2ccccc12
inactive: dose: 100.0 mg/kg/injection, schedule: Q01DX001 (ip), vehicle: saline with Tween-80 112 % of control | dose: 200.0 mg/kg/injection, schedule: Q01DX001 (ip), vehicle: saline with Tween-80 108 % of control | dose: 400.0 mg/kg/injection, schedule: Q01DX001 (ip), vehicle: saline with Tween-80 116 % of control

COc1ccc2c(c1OC)CC(C(=O)O)=C2C
inactive: dose: 50.0 mg/kg/injection, schedule: Q01DX005 (ip), vehicle: saline with Tween-80 99 % of control | dose: 100.0 mg/kg/injection, schedule: Q01DX005 (ip), vehicle: saline with Tween-80 94 % of control | dose: 200.0 mg/kg/injection, schedule: Q01DX005 (ip), vehicle: saline with Tween-80 99 % of control

O=C(COc1ccc(Cl)cc1)OC(=O)COc1ccc(Cl)cc1
inactive: dose: 25.0 mg/kg/injection, schedule: Q01DX009 (ip), vehicle: other 110 % of control | dose: 50.0 mg/kg/injection, schedule: Q01DX009 (ip), vehicle: other 112 % of control | dose: 100.0 mg/kg/injection, schedule: Q01DX009 (ip), vehicle: other 110 % of control | dose: 200.0 mg/kg/injection, schedule: Q01DX009 (ip), vehicle: other 106 % of control

O=[N+]([O-])c1cccc(NC(c2ccccc2)S(=O)(=O)O)c1 (stereo unspecified)
inactive: dose: 50.0 mg/kg/injection, schedule: Q01DX009 (ip), vehicle: saline 104 % of control | dose: 100.0 mg/kg/injection, schedule: Q01DX009 (ip), vehicle: saline 114 % of control | dose: 200.0 mg/kg/injection, schedule: Q01DX009 (ip), vehicle: saline 106 % of control

N#CC(Nc1ccccc1)c1ccc(Cl)cc1 (stereo unspecified)
inactive: dose: 60.0 mg/kg/injection, schedule: Q01DX005 (ip), vehicle: saline with Tween-80 94 % of control | dose: 120.0 mg/kg/injection, schedule: Q01DX005 (ip), vehicle: saline with Tween-80 94 % of control | dose: 240.0 mg/kg/injection, schedule: Q01DX005 (ip), vehicle: saline with Tween-80 104 % of control

Ic1ccc(C2CC(c3ccccc3)=NN2c2ccccc2)cc1 (stereo unspecified)
inactive: dose: 25.0 mg/kg/injection, schedule: Q01DX009 (ip), vehicle: Klucel (hydroxypropylcellulose) (HPC) 97 % of control | dose: 50.0 mg/kg/injection, schedule: Q01DX009 (ip), vehicle: Klucel (hydroxypropylcellulose) (HPC) 87 % of control | dose: 100.0 mg/kg/injection, schedule: Q01DX009 (ip), vehicle: Klucel (hydroxypropylcellulose) (HPC) 87 % of control | dose: 200.0 mg/kg/injection, schedule: Q01DX009 (ip), vehicle: Klucel (hydroxypropylcellulose) (HPC) 90 % of control

O=C(CCl)NC(=O)CCl
inactive: dose: 25.0 mg/kg/injection, schedule: Q01DX009 (ip), vehicle: saline with Tween-80 90 % of control

[Cl][Pt+2][Cl].[NH-]CC([NH-])CN
inactive: dose: 6.25 mg/kg/injection, schedule: Q04DX003 (ip), vehicle: saline 101 % of control | dose: 12.5 mg/kg/injection, schedule: Q04DX003 (ip), vehicle: saline 111 % of control | dose: 25.0 mg/kg/injection, schedule: Q04DX003 (ip), vehicle: saline 107 % of control

O=C1Cc2ccccc2C(=O)N1CCN1CCOCC1
inactive: [1] 101 % of control | dose: 200.0 mg/kg/injection, schedule: Q01DX001 (ip), vehicle: saline 108 % of control

Cc1cccc(NC(=O)Nc2cccc(S(N)(=O)=O)c2)c1C
inactive: [2] 104 % of control | [3] 90 % of control | [4] 90 % of control

COc1cccc(-c2nc3n(n2)CCc2ccccc2-3)c1
inactive: [2] 105 % of control | [3] 106 % of control | [4] 86 % of control

From PubChem BioAssay AID330 (DTP/NCI, 2004)
